Drawing on US20260146035A1, “FUSED BICYCLIC COMPOUNDS AND THEIR USE AS MER AND AXL INHIBITORS” (DONG-A ST CO., LTD., priority 2022, published 2026), this text covers IC50 for 14 compounds.

One assay addresses T1, human AXL (473-end) (Homo sapiens, UniProt P30530).
T1 construct: human AXL (473-end); purchased SignalChem, Canada
T1 sequence (P30530 473-894 limits assumed): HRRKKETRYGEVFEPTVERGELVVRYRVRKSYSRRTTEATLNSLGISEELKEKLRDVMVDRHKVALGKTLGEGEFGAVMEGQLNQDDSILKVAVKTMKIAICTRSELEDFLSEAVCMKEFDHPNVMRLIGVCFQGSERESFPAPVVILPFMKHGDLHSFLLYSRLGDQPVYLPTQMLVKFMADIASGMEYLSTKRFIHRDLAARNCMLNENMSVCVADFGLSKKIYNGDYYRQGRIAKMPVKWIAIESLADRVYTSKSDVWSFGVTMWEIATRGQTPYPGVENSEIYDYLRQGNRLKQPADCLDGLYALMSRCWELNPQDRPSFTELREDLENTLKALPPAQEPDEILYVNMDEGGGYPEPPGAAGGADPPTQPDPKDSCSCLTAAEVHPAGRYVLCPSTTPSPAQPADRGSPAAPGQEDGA
In words: HTRF kinase activity biochemical assay, AXL. Conditions: 10 μM ATP, 30 minutes pre-incubation. In general terms: TR-FRET usually uses a lanthanide donor and a delayed reading to cut background.

In a further assay the target is T2, human TYRO3 (455-end) (Homo sapiens, UniProt Q06418).
T2 construct: TYRO3 (455-end); purchased SignalChem, Canada
T2 sequence (Q06418 455-890 limits assumed): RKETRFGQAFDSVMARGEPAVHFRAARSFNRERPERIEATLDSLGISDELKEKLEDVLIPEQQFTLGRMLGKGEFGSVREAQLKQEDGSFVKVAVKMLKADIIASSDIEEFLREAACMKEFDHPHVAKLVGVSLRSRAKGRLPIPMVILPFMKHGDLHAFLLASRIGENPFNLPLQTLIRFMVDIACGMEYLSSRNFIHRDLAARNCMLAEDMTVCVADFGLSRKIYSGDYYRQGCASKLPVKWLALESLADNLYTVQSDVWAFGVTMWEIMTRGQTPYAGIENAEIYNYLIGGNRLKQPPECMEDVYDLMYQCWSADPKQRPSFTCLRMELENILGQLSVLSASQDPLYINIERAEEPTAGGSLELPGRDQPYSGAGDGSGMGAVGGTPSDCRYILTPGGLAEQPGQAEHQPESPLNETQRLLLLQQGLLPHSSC
In words: HTRF kinase activity biochemical assay, TYRO3.

Another assay has as its target T3, human MER (528-end) (Homo sapiens, UniProt Q12866).
T3 construct: human MER (528-end); purchased Camnabio, Japan
T3 sequence (Q12866 528-999 limits assumed): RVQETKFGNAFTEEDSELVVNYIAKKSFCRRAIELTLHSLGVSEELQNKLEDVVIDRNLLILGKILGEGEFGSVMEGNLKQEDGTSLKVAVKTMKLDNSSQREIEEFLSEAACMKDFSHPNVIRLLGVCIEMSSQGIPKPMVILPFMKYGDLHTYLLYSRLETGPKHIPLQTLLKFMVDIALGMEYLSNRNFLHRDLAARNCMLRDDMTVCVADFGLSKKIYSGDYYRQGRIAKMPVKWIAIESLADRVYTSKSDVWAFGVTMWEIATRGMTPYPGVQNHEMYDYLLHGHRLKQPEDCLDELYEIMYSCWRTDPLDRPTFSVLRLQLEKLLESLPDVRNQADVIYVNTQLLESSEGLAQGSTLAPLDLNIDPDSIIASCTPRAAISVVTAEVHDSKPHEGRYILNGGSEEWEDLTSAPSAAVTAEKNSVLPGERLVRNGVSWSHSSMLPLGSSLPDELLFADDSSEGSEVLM
In words: HTRF kinase activity biochemical assay, MER. Conditions: 10 μM ATP, 30 minutes pre-incubation; read-out: HTRF MERTK IC50.

[1] abbreviates: 10 μM ATP, 30 minutes pre-incubation, read-out: HTRF TYRO IC50.

Where two headings read alike, the source gives them in different places. A value given as a limit tells only on which side of the number the result lay.

What is called IC50 is the concentration needed to halve the response being measured. Turning to `Cn1cc(-c2cnc(N)c(C(=O)N[C@H]3CCC[C@@H]3OCc3ccc(-c4ccc5c(c4)CC(F)(F)[C@H]5N4CCN(CCO)CC4)cc3)c2)cn1` [Example 66, 2-amino-N-{(1S,2S)-2-[(4-{(1S)-2,2-difluoro-1-[4-(2-hydroxyethyl)piperazin-1-yl]-2,3-dihydro-1H-inden-5-yl}phenyl)methoxy]cyclopentyl}-5-(1-methyl-1H-pyrazol-4-yl)pyridine-3-carboxamide], the IC50 was 10 to 100 nM on human AXL (473-end), more than 1000 nM on human TYRO3 (455-end) (setting [1]) and 10 to 100 nM at human MER (528-end).

Turning to `Cn1cc(-c2cnc(N)c(C(=O)N[C@H]3CCC[C@@H]3OCc3ccc(-c4ccc5c(ccn5CCN)c4)cc3)c2)cn1` [Example 67, 2-amino-N-[(1S,2S)-2-({4-[1-(2-aminoethyl)-1H-indol-5-yl]phenyl}methoxy)cyclopentyl]-5-(1-methyl-1H-pyrazol-4-yl)pyridine-3-carboxamide], the IC50 against human AXL (473-end) was less than 10 nM; on human TYRO3 (455-end) (setting [1]), 100 to 1000 nM; on human MER (528-end), less than 10 nM.

With `Cn1cc(-c2cnc(N)c(C(=O)N[C@H]3CCC[C@@H]3OCc3ccc(-c4ccc5[nH]ccc5c4)cc3)c2)cn1` [Example 68, 2-amino-N-[(1S,2S)-2-{[4-(1H-indol-5-yl)phenyl]methoxy}cyclopentyl]-5-(1-methyl-1H-pyrazol-4-yl)pyridine-3-carboxamide], the results for the IC50 against human AXL (473-end), on human TYRO3 (455-end) (setting [1]) and at human MER (528-end) were less than 10 nM, 100 to 1000 nM and less than 10 nM, respectively.

As to `Cn1cc(-c2cnc(N)c(C(=O)N[C@H]3CCC[C@@H]3OCc3ccc(-c4ccc5c(c4)NC(=O)C5N4CCN(CCO)CC4)cc3)c2)cn1` (stereo partly drawn) [Example 69, 2-amino-N-{(1S,2S)-2-[(4-{3-[4-(2-hydroxyethyl)piperazin-1-yl]-2-oxo-2,3-dihydro-1H-indol-6-yl}phenyl)methoxy]cyclopentyl}-5-(1-methyl-1H-pyrazol-4-yl)pyridine-3-carboxamide], the concentration for half-maximal inhibition (IC50) at human AXL (473-end) is 100 to 1000 nM; at human TYRO3 (455-end) (setting [1]) it was more than 1000 nM; on human MER (528-end), 100 to 1000 nM.

As to `CN(C)CCn1ccc2cc(-c3ccc(CO[C@H]4CCC[C@@H]4NC(=O)c4cc(-c5cnn(C)c5)cnc4N)cc3)ccc21` [Example 70, 2-amino-N-{(1S,2S)-2-[(4-{1-[2-(dimethylamino)ethyl]-1H-indol-5-yl}phenyl)methoxy]cyclopentyl}-5-(1-methyl-1H-pyrazol-4-yl)pyridine-3-carboxamide], the IC50 at human AXL (473-end) was less than 10 nM; at human TYRO3 (455-end) (setting [1]), 100 to 1000 nM; at human MER (528-end), less than 10 nM.

Take `Cn1cc(-c2cnc(N)c(C(=O)N[C@H]3COC[C@@H]3OCc3ccc(-c4ccc5c(c4)C(C)(C)CN5C4CCN(CCO)CC4)cc3)n2)cn1` [Example 71, 3-amino-N-{(3S,4R)-4-[(4-{1-[1-(2-hydroxyethyl)piperidin-4-yl]-3,3-dimethyl-2,3-dihydro-1H-indol-5-yl}phenyl)methoxy]oxolan-3-yl}-6-(1-methyl-1H-pyrazol-4-yl)pyrazine-2-carboxamide]: the figures for the IC50 on human AXL (473-end), on human TYRO3 (455-end) (setting [1]) and at human MER (528-end) were 10 to 100 nM, 100 to 1000 nM and less than 10 nM, respectively.

In the case of `Cn1cc(-c2cnc(N)c(C(=O)N[C@H]3CCC[C@@H]3OCc3ccc(-c4ccc5c(c4)C4(CC4)CN(C4CCN(CCO)CC4)C5)cc3)c2)cn1` [Example 72, 2-amino-N-{(1S,2S)-2-[(4-{2′-[1-(2-hydroxyethyl)piperidin-4-yl]-2′,3′-dihydro-1′H-spiro[cyclopropane-1,4′-isoquinolin]-6′-yl}phenyl)methoxy]cyclopentyl}-5-(1-methyl-1H-pyrazol-4-yl)pyridine-3-carboxamide], the IC50 at human AXL (473-end) is more than 1000 nM; on human TYRO3 (455-end) (setting [1]) it was more than 1000 nM; at human MER (528-end), 100 to 1000 nM.

Consider `Cn1cc(-c2cnc(N)c(C(=O)N[C@H]3CCC[C@@H]3OCc3ccc(-c4ccc5c(n4)C(C)(C)C(=O)N5C4CCN(CCO)CC4)cc3)c2)cn1` [Example 73, 2-amino-N-{(1S,2S)-2-[(4-{1-[1-(2-hydroxyethyl)piperidin-4-yl]-3,3-dimethyl-2-oxo-2,3-dihydro-1H-pyrrolo[3,2-b]pyridin-5-yl}phenyl)methoxy]cyclopentyl}-5-(1-methyl-1H-pyrazol-4-yl)pyridine-3-carboxamide], for which the figures for the IC50 at human AXL (473-end), on human TYRO3 (455-end) and at human MER (528-end) were more than 1000 nM, 100 to 1000 nM and 100 to 1000 nM, respectively.

`CC1(C)C(=O)N(C2CCN(CCO)CC2)c2ccc(-c3ccc(CO[C@H]4CCC[C@@H]4NC(=O)c4cc(-c5ccc(F)nc5)cnc4N)cc3)nc21` [Example 74, 6-amino-6′-fluoro-N-{(1S,2S)-2-[(4-{1-[1-(2-hydroxyethyl)piperidin-4-yl]-3,3-dimethyl-2-oxo-2,3-dihydro-1H-pyrrolo[3,2-b]pyridin-5-yl}phenyl)methoxy]cyclopentyl}[3,3′-bipyridine]-5-carboxamide]: the IC50 on human AXL (473-end) is more than 1000 nM; on human TYRO3 (455-end), 100 to 1000 nM; on human MER (528-end) it was 100 to 1000 nM.

With `Nc1ncc(-c2ccc(F)nc2)cc1C(=O)N[C@H]1CCC[C@@H]1OCc1ccc(-c2ccc3c(c2)C2(CC2)CN(C2CCN(CCO)CC2)C3)cc1` [Example 75, 6-amino-6′-fluoro-N-{(1S,2S)-2-[(4-{2′-[1-(2-hydroxyethyl)piperidin-4-yl]-2′,3′-dihydro-1′H-spiro[cyclopropane-1,4′-isoquinolin]-6′-yl}phenyl)methoxy]cyclopentyl}[3,3′-bipyridine]-5-carboxamide], the 50% inhibitory concentration (IC50) at human AXL (473-end), at human TYRO3 (455-end) (setting [1]) and on human MER (528-end) was more than 1000 nM in each case.

As to `Cn1cc(-c2cnc(N)c(C(=O)N[C@H]3CCC[C@@H]3OCc3ccc(-c4cnc5c(c4)C(C)(C)C(=O)N5C4CCN(CCO)CC4)cc3)c2)cn1` [Example 76, 2-amino-N-{(1S,2S)-2-[(4-{1-[1-(2-hydroxyethyl)piperidin-4-yl]-3,3-dimethyl-2-oxo-2,3-dihydro-1H-pyrrolo[2,3-b]pyridin-5-yl}phenyl)methoxy]cyclopentyl}-5-(1-methyl-1H-pyrazol-4-yl)pyridine-3-carboxamide], the results for the half-inhibitory concentration (IC50) against human AXL (473-end), at human TYRO3 (455-end) and on human MER (528-end) were 100 to 1000 nM, 100 to 1000 nM and 10 to 100 nM, respectively.

For `Cn1cc(-c2cnc(N)c(C(=O)N[C@H]3CCC[C@@H]3OCc3ccc(-c4cnc5c(c4)C(C)(C)CN5C4CCN(CCO)CC4)cc3)c2)cn1` [Example 77, 2-amino-N-{(1S,2S)-2-[(4-{1-[1-(2-hydroxyethyl)piperidin-4-yl]-3,3-dimethyl-2,3-dihydro-1H-pyrrolo[2,3-b]pyridin-5-yl}phenyl)methoxy]cyclopentyl}-5-(1-methyl-1H-pyrazol-4-yl)pyridine-3-carboxamide], the IC50 against human AXL (473-end) is less than 10 nM; at human TYRO3 (455-end) (setting [1]), 10 to 100 nM; at human MER (528-end), less than 10 nM.

Take `CC1(C)OCC(CN2CCN(C3CCc4cc(-c5ccc(CO[C@H]6CCC[C@@H]6NC(=O)c6cc(-c7ccc(F)nc7)cnc6N)cc5)ccc43)CC2)O1` (stereo partly drawn) [Example 78, 6-amino-N-[(1S,2S)-2-{[4-(1-{4-[(2,2-dimethyl-1,3-dioxolan-4-yl)methyl]piperazin-1-yl}-2,3-dihydro-1H-inden-5-yl)phenyl]methoxy}cyclopentyl]-6′-fluoro[3,3′-bipyridine]-5-carboxamide]: the IC50 is 10 to 100 nM on human AXL (473-end), more than 1000 nM on human TYRO3 (455-end) (setting [1]) and less than 10 nM on human MER (528-end).

As for `Cn1cc(-c2cnc(N)c(C(=O)N[C@H]3CCC[C@@H]3OCc3ccc(-c4ccc5c(c4)CCC5N4CCN(CC5COC(C)(C)O5)CC4)cc3)c2)cn1` (stereo partly drawn) [Example 79, 2-amino-N-[(1S,2S)-2-{[4-(1-{4-[(2,2-dimethyl-1,3-dioxolan-4-yl)methyl]piperazin-1-yl}-2,3-dihydro-1H-inden-5-yl)phenyl]methoxy}cyclopentyl]-5-(1-methyl-1H-pyrazol-4-yl)pyridine-3-carboxamide], the 50% inhibitory concentration (IC50) on human AXL (473-end) is less than 10 nM; at human TYRO3 (455-end) (setting [1]), more than 1000 nM; on human MER (528-end), less than 10 nM.
